In patent US20240208997A1, “CYCLIC BENZIMIDAZOLE DERIVATIVES AS CGAS INHIBITORS” (Boehringer Ingelheim International GmbH, priority 2022, published 2024):

Assays:
[1] = test system: IFN induction in dsDNA-stimulated human whole blood; assay: Human whole blood assay (hWB IC50), dsDNA stimulated, IFNα2α production; format: cell-based; conditions: Table 1
Protocol: 6.3 Method: Human Whole Blood Assay (Human WB IC50)
For the detection of cellular cGAS activity human whole blood was stimulated by transfection with double stranded DNA. Pathway activity was monitored by measuring the IFNα2α production.
Compounds were delivered as 10 mM DMSO solution and serially diluted and transferred to the 96-well cell culture plate (Corning #3595), prefilled with 20 μl OptiMEM (Gibco, #11058-021) in each well, using an Echo acoustic dispenser. Typically, 8 concentrations were used with the highest concentration at 10 μM in the final assay volume followed by ^˜1:5 dilution steps. DMSO concentration was set to 0.1% in the final assay volume. The 96-well assay plate contained 10 test compounds, and DMSO in control wells.
Collection of human whole blood from 3 or more healthy donors (male or female, no medication for 7 days except contraceptive and thyroxine) as Na-Citrate blood (e.g. 3.8% in Monovettes from Sarstedt) was conducted in parallel. Whole blood was kept at room temperature for a maximum of 3 hours after collection until use in the assay. 160 μl of the whole blood samples was transferred to each well of the 96-well assay plates filled with compound/OptiMEM. All assay plates were prepared as duplicates with blood from different donors. Blood plates were kept at room temperature for 60 minutes and continuous shaking with 450 rpm, covered with the lid, but not sealed.
20 μl OptiMEM and 9.6:1 Fugene was added to all low control wells.
After covering assay plates with aera seals and the lid, blood plates were kept at room temperature for 30 minutes and continuous shaking with 450 rpm, followed by an overnight incubation of 22 h at 37° C. in the incubator, without shaking.
For the detection of IFNα-2α in human plasma, the biotinylated capture antibody (Antibody set IFNA2, Meso Scale Diagnostics #B21VH-3, including coating and capture antibody) was diluted 1:17.5 in Diluent 100 (Meso Scale Diagnostics #R50AA-4), according to the manufacturer's directions. U-Plex MSD GOLD 96-well Small Spot Strepavidin SECTOR Plates (Meso Scale Diagnostics #L45SA-5) were coated with 25 μl diluted capture antibody. Coated plates were incubated for 60 min at room temperature under continuous shaking at 700 rpm. MSD IFNα-2α plates were washed three times with 150 μl wash buffer (1× HBSS, 0.05% Tween).
After blocking the plates with 100 μl block solution/well (1× HBSS with 0.2% Tween, 2% BSA) for 60 min at room temperature and continuous shaking at 700 rpm, plates were emptied as dry as possible by dumping just before continuing with the human plasma.
Whole Blood assay plates were centrifuged at 1600 rpm for 10 minutes. 25 μl of supernatant was transferred with a pipetting robot from each whole blood plate to the corresponding IFNα-2α plate. Plates were sealed with microplate seals and kept at room temperature again under continuous shaking at 700 rpm for two hours.
Next MSD IFNα-2α plates were washed three times with 150 μl wash buffer (1× HBSS, 0.05% Tween), before adding 25 μl MSD SULFO-TAG IFNα-2α Antibody solution (1:100 diluted in Diluent 3 (Meso Scale Diagnostics #R50AP-2) to each well of the plates.
Afterwards plates were sealed with microplate seals and kept at room temperature again under continuous shaking at 700 rpm for two hours. Finally, MSD IFNα-2α plates were washed three times with 150 μl wash buffer (1× HBSS, 0.05% Tween). 150 μl 2× Read buffer was added to each well and plates were immediately measured with the MSD Sector S600 Reader using the vendor barcode.
Data Evaluation and Calculation:
For data evaluation and calculation, % control calculation of each well was based on the mean of high (DNA stimulated control) and mean of low (unstimulated control) controls by using the following formula:
[counts(sample)−counts(low))/(counts(high)−counts(low))]*100
The IC50-values were calculated using the standard 4 parameter logistic regression formula. […]

[2] = test system: IFN induction in virus-stimulated THP1 cells; assay: Human cGAS cell assay, virus-stimulated THP1-Dual cells (THP1(vir) IC50); format: cell-based; conditions: THP-1, 18 h, Table 1, baculovirus-stimulated THP1-Dual cells, Lucia luciferase, 18 h, read-out: THP(vir) IC50
How it was run: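 THP1-Dual cells with an IRF-driven Lucia luciferase reporter, activated by baculovirus-delivered dsDNA to drive cGAS, with 8-point compound series from 10 µM top (~1:5 steps) in 1% DMSO. After 18 h at 37 °C, luminescence read; IC50 via 4-parameter logistic against virus-free low control.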

[3] = test system: IFN induction in cGAMP-stimulated THP1 cells; assay: cGAMP stimulated counter cell assay in THP1-Dual cells (THP1(cGAMP) IC50); format: cell-based, human; conditions: Table 1; for IC50: Homo sapiens, THP-1, counter assay, 10 μM cGAMP stimulation, read-out: THP(cGAMP) IC50; for Ratio THP(cGAMP) IC50/THP(vir) IC50: selectivity for cGAS-inhibition
How it was run: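 THP1-Dual cells (5000/well, RPMI/10% FCS) stimulated with cGAMP to activate the pathway directly downstream of cGAS; compounds at 8 concentrations, top 10 μM, ~1:5 steps, 1% DMSO. After 18 h at 37 °C, Lucia luciferase luminescence read; IC50 from 4-parameter logistic fit normalised to low and high controls.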

SMILES	IC50 [1] [nM]	IC50 [2] [nM]	IC50 [3] [nM]	Ratio THP(cGAMP) IC50/THP(vir) IC50 [3]
C[C@@H]1CN2CC[C@H]1n1c(nc3ccccc31)O[C@H]1C[C@@H](C(=O)O)N(C1)c1nc(nc3c1oc1ccccc13)CCCCCOC2=O [Example 10.01]	439	180	8200	45
C[C@H]1CN2CC[C@@H]1n1c(nc3ccccc31)O[C@H]1C[C@@H](C(=O)O)N(C1)c1nc(nc3c1oc1ccccc13)CCCCCOC2=O [Example 10.02]	83	64	> 10000	>156
O=C(O)[C@@H]1C[C@H]2CN1c1nc(nc3c1oc1ccccc13)OCCCCOC(=O)N1CCC(CC1)n1c(nc3ccccc31)O2 [Example 11.01]	138	180	> 1000	>56
C[C@H]1CN2CC[C@@H]1n1c(nc3ccccc31)O[C@H]1C[C@@H](C(=O)O)N(C1)c1nc(nc3c1oc1ccccc13)CCCCCN(C)C2=O [Example 13.01]	186	500	7300	15
